Test results published in patent US7504035B2, “Treatment of putrescrible cakes” (United Utilities PLC, priority 2005, dated 2009).

Tests used:
Assay type in all cases: cell-based
E. coli [1] = test: E. coli content of raw sewage sludge cake (25.6% DS) treated with urea; settings: raw sewage sludge 25.6% DS
Procedure: Samples of raw sewage sludge cake with mean solids content of 25.6% were treated with various amounts of urea. The E. coli content (cfu/g dry weight) of the samples was monitored over a period.

E. coli [2] = test: E. coli content of digested sludge cake (24.8% solids) treated with urea; settings: digested sewage sludge 24.8% solids
Procedure: Samples of digested sludge cake with mean solids content of 24.8% were treated with various amounts of urea. The E. coli content (cfu/g dry weight) of the samples was monitored over a period.

pathogens in the cake = test: Pathogen deactivation in sewage sludge cake (general statement); settings: low concentration added to sewage sludge cake, particularly septic cake

SMILES: NC(N)=O [urea]
- E. coli content (E. coli [1]; 0.5% dose urea, day 0): 1.36E+06 cfu/g dry weight
- E. coli content (E. coli [1]; 0.5% dose urea, day 1): 7.58E+06 cfu/g dry weight
- E. coli content (E. coli [1]; 0.5% dose urea, day 8): 1.32E+05 cfu/g dry weight
- E. coli content (E. coli [1]; 0.5% dose urea, day 14): 1.18E+05 cfu/g dry weight
- E. coli content (E. coli [1]; 0.5% dose urea, day 22): 4.55E+04 cfu/g dry weight
- E. coli content (E. coli [1]; 1.0% dose urea, day 0): 1.39E+06 cfu/g dry weight
- E. coli content (E. coli [1]; 1.0% dose urea, day 1): 6.15E+06 cfu/g dry weight
- E. coli content (E. coli [1]; 1.0% dose urea, day 8): 3.25E+03 cfu/g dry weight
- E. coli content (E. coli [1]; 1.0% dose urea, day 14): 9.58E+02 cfu/g dry weight
- E. coli content (E. coli [1]; 1.0% dose urea, day 22): 3.35E+02 cfu/g dry weight
- E. coli content (E. coli [1]; 1.5% dose urea, day 0): 1.23E+06 cfu/g dry weight
- E. coli content (E. coli [1]; 1.5% dose urea, day 1): 1.30E+03 cfu/g dry weight
- E. coli content (E. coli [1]; 1.5% dose urea, day 8): 9.03E+02 cfu/g dry weight
- E. coli content (E. coli [1]; 1.5% dose urea, day 14): 2.09E+02 cfu/g dry weight
- E. coli content (E. coli [1]; 1.5% dose urea, day 22): 1.00E+01 cfu/g dry weight
- E. coli content (E. coli [2]; 0.5% dose urea, day 0): 4.67E+04 cfu/g dry weight
- E. coli content (E. coli [2]; 0.5% dose urea, day 1): 1.86E+03 cfu/g dry weight
- E. coli content (E. coli [2]; 0.5% dose urea, day 4): 1.21E+02 cfu/g dry weight
- E. coli content (E. coli [2]; 0.5% dose urea, day 7): 1.94E+02 cfu/g dry weight
- E. coli content (E. coli [2]; 0.5% dose urea, day 14): 3.90E+01 cfu/g dry weight
- E. coli content (E. coli [2]; 0.5% dose urea, day 50): 5.40E+01 cfu/g dry weight
- E. coli content (E. coli [2]; 1.0% dose urea, day 0): 1.79E+04 cfu/g dry weight
- E. coli content (E. coli [2]; 1.0% dose urea, day 1): 6.97E+03 cfu/g dry weight
- E. coli content (E. coli [2]; 1.0% dose urea, day 4): 7.90E+01 cfu/g dry weight
- E. coli content (E. coli [2]; 1.0% dose urea, day 7): 7.90E+01 cfu/g dry weight
- E. coli content (E. coli [2]; 1.0% dose urea, day 14): 1.34E+02 cfu/g dry weight
- E. coli content (E. coli [2]; 1.0% dose urea, day 50): 1.85E+02 cfu/g dry weight
- E. coli content (E. coli [2]; 1.5% dose urea, day 0): 1.19E+04 cfu/g dry weight
- E. coli content (E. coli [2]; 1.5% dose urea, day 1): 4.57E+03 cfu/g dry weight
- E. coli content (E. coli [2]; 1.5% dose urea, day 4): 3.70E+01 cfu/g dry weight
- E. coli content (E. coli [2]; 1.5% dose urea, day 7): 1.54E+02 cfu/g dry weight
- E. coli content (E. coli [2]; 1.5% dose urea, day 14): 7.90E+01 cfu/g dry weight
- E. coli content (E. coli [2]; 1.5% dose urea, day 50): 4.10E+01 cfu/g dry weight
- Pathogens in the cake (pathogens in the cake): quickly become deactivated
